Source: patent publication US12096769B2, “Mechanism of urea/solid acid interaction under storage conditions and storage stable solid compositions comprising urea and acid” (ECOLAB USA INC., priority 2017, dated 2024)

Experiments:
Assay type in all cases: physicochemical
[1] = pH in 17 grains per gallon (gpg) water, Example 5; details: Dose 625 ppm
Text: The pH of the urea/citric acid complex was also compared to those of citric acid and monosodium citrate.

[2] = Swelling of tablets made with various acids as the acid filler, Example 2
[3] = Tablet dimensional change at 40° C. and 90% humidity, Example 6; details: acid filler of the formulation
Procedure: A formulation using urea/citric acid complex as the acid filler were compared to those using urea or a mixture of urea and citric acid. In this Example, tablets were made according to the formulations in Table 8, then placed at 40° C. and 90% humidity. Their dimensional changes were measured during two-weeks period of time.

[4] = Block stability in a dispenser (swelling after 1 minute soak in water), Example 7; details: soaked in 1 inch of water at 43.3° C. (110° F.) for 1 minute; up to 18 hours
Procedure: Various blocks made from different formulations were screened for their block stability in a dispenser. During the experiments, the blocks were soaked in 1 inch of water at 43.3° C. (110° F.) for 1 minute, then measured for their swelling as a function of time.

Swelling of the tablet using the acid as the filler ([2]; 4 Week at 40° C.)	SMILES	pH in 17 gpg Water [1]	further results
	O=C(O)CC(O)(CC(=O)O)C(=O)O [Citric Acid]	4.45	
Weeping	CC(O)C(=O)O (centres unmarked) [Lactic Acid]		State of the tablet using the acid as the filler ([2]; at 50° C.): melted
Melted	O=C(O)/C=C\C(=O)O [Maleic Acid]		
~5%	O=C(O)CC(O)C(=O)O (centres unmarked) [Malic Acid]		
Weeping	O=C(O)CC(=O)O [Malonic Acid]		
	O=C([O-])CC(O)(CC(=O)O)C(=O)O.[Na+] [Monosodium citrate]	5.6	
	NC(N)=O.O=C(O)CC(O)(CC(=O)O)C(=O)O [Urea-Citrate, urea-citric acid complex]	4.8	Swelling of the tablet using the acid as the filler ([2]; at 2 weeks, 40° C.): 0.5% at 2 weeks; Storage stability as measured by percentage swelling (in words) [3]: best storage stability; Swelling of the block after soak (in words) [4]: swelling is minimal
